The source of these data is article PMC6522912, “Evaluation of the published kinase inhibitor set to identify multiple inhibitors of bacterial ATP-dependent mur ligases” (Journal of Enzyme Inhibition and Medicinal Chemistry, 2019).

Test [1] concerns the target E. coli MurF (Escherichia coli, UniProt P11880). The test can be described thus: biochemical. Conditions: for remaining activity at 100 µM: 0.25 h, read-out: RA [%] at 100 µM MurF.
Test [2] addresses E. coli MurD (Escherichia coli, UniProt P14900). The test can be described thus: biochemical. Conditions: for remaining activity at 100 µM: 0.25 h, Table S1, PKIS screening, read-out: RA [%] at 100 µM MurD. In a few lines: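 Reaction 15 min at 37 °C, then phosphate detected with Biomol green at 650 nm. Values are residual activity versus 5% DMSO carrier controls.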
The target in test [3] is E. coli MurC (Escherichia coli, UniProt P17952). The test can be described thus: Malachite green inhibition assay, MurC. The note with it: for remaining activity at 100 µM: 0.25 h. In kind it is biochemical.
The mark [4] stands for this setting: Table S1, PKIS screening, read-out: RA [%] at 100 µM MurC.
Setting [5] is: Table S3, aza stilbene compounds.

The structures appear in SMILES notation. Read-outs that look alike come from different tables or passages of the source.

Chain of E. coli MurF (P11880 whole entry): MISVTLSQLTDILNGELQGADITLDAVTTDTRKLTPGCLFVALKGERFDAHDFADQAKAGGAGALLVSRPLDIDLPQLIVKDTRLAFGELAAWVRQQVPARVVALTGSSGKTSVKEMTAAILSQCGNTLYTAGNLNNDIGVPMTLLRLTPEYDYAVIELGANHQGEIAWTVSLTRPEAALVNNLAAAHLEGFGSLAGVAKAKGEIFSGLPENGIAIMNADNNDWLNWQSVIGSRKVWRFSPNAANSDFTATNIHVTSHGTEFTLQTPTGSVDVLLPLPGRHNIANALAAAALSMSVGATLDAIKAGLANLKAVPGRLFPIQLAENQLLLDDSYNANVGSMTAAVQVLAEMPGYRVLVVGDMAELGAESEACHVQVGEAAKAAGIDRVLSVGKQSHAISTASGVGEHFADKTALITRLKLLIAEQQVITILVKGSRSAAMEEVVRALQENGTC
Chain of E. coli MurD (P14900 whole entry): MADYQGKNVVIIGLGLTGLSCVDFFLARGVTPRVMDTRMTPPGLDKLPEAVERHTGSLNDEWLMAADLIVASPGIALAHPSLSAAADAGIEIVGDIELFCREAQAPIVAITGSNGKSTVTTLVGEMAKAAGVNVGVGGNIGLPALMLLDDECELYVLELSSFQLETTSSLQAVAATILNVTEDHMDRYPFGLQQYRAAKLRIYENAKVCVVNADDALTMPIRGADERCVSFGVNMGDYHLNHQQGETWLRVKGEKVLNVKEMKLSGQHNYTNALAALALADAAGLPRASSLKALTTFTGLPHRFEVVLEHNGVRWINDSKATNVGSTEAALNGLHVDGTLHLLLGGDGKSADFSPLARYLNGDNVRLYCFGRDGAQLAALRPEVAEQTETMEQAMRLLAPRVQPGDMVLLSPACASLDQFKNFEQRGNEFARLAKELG
Chain of E. coli MurC (P17952 whole entry): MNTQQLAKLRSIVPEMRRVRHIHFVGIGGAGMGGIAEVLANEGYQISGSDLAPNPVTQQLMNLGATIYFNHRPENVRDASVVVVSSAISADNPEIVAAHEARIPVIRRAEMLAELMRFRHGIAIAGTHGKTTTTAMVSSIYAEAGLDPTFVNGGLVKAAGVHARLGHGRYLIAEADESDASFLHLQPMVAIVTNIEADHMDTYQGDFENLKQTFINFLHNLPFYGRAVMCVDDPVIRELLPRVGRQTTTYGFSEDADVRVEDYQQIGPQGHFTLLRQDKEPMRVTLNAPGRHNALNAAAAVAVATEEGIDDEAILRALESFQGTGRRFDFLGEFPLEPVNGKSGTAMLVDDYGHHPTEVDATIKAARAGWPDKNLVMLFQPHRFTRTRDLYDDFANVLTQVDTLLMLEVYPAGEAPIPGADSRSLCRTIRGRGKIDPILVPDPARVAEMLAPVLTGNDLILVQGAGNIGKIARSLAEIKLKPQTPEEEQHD

Take `O=C(Nc1n[nH]c2nc(-c3ccco3)ccc12)C1CC1` [SB-743899]: the remaining activity at 100 µM in test [1] (Table S1, PKIS screening) stood at 91%; in test [2], 89%; in test [3] (setting [4]), 84%.
The like results for `O=C1Nc2ccccc2/C1=C1\CCc2cc(O)ccc21` [GR105659X] were, in that order, 100%, 100% and 85%.
In the case of `CN1CCC(n2cnc(-c3ccc(F)cc3)c2-c2ccnc(N)n2)CC1` [SB-220455], the remaining activity at 100 µM in test [1] (Table S1, PKIS screening) is 100%; in test [2] it was 81%; in test [3] (read-out: RA [%] at 100 µM MurC, Table S1, PKIS screening) it was 76%.
For `Cc1cc(O)cc(C)c1C=Cc1cncc(C(N)=O)c1` [Compound 14], in test [1] (setting [5]), the “RA (%) MurF” value was found to be 75%. For the same molecule, the “RA (%) MurD” value in test [2] is 89%. For the same molecule, the “RA (%) MurC” value in test [3] (setting [5]) is recorded as 89%.
For `COC(=O)Nc1nc2ccc(Oc3ccc(NC(=O)Nc4ccccc4)cc3)cc2[nH]1` [GW694590A], the remaining activity at 100 µM in test [1] (Table S1, PKIS screening) was determined as 75%; in test [2], 99%; in test [3] (setting [4]), 62%.
For `Nc1ncnc2occ(-c3ccc(NC(=O)Nc4cc(C(F)(F)F)cc(C(F)(F)F)c4)cc3)c12` [GW795486X] the same measures were 71%, 57% and 36%.
The like results for `CNC(=O)c1cncc(/C=C/c2ccccc2C)c1` [GW445015X] were, in that order, 85%, 91% and 100%.
For `Fc1ccc(-c2ncn(C3CCNCC3)c2-c2ccnc(Oc3ccccc3)n2)cc1` [SB-239272] the same measures were 75%, 67% and 100%.
In the case of `Cc1cc(O)cc(C)c1/C=C/c1cncc(-c2nn[nH]n2)c1` [GW441806A], the remaining activity at 100 µM was 90% in test [1] (Table S1, PKIS screening); 91% in test [2]; 70% in test [3] (setting [4]).
The like results for `CN1CCN(Cc2ccc(-c3cc4ncnc(Nc5ccc(OCc6cccc(F)c6)c(Cl)c5)c4s3)o2)CC1` [GW784684X] were, in that order, 56%, 52% and 20%.
For `CN(c1ccc(NC(=O)Nc2c(Cl)cccc2Cl)cc1)c1ccnc(Nc2cccc(CS(C)(=O)=O)c2)n1` [GW809897X] the same measures were 51%, 55% and 26%.
Take `Cc1ccc(O)cc1Nc1ccnc2cc(-c3ccccn3)ccc12` [GW440139B]: the “RA [%] at 100 µM MurF” value in test [1] (Table S1, PKIS screening) was 66%. Also, in test [2], the “RA [%] at 100 µM MurD” value came to 73. Moreover, the “RA [%] at 100 µM MurC” value in test [3] (Table S1, PKIS screening) is listed as 73%.
`CNC(=O)c1cncc(/C=C/c2c(Cl)cccc2Cl)c1` [GW445014X]: the remaining activity at 100 µM in test [1] (Table S1, PKIS screening) was 77%; in test [2], 80%; in test [3] (setting [4]) it was 81%.
The like results for `CC(C)c1ccc(-c2cc(-c3c[nH]nc3-c3ccccn3)ccn2)cc1` [GW682841X] were, in that order, 88%, 85% and 78%.
The like results for `N#Cc1ccc2c(-c3ccnc(NC4CC4)n3)c(-c3ccc(F)cc3)nn2c1` [GW561436X] were, in that order, 77%, 76% and 87%.
For `c1ccc(-c2n[nH]cc2-c2ccnc(-c3ccc(OCCN4CCOCC4)cc3)c2)nc1` [GW695874X] the same measures were 91%, 80% and 79%.
As for `COc1ccc(COc2ccc(Cc3cnc(N)nc3N)cc2OC)cc1` [GW632580X], the remaining activity at 100 µM was found to be 99% in test [1] (Table S1, PKIS screening); 89% in test [2]; 88% in test [3] (setting [4]).
The like results for `CCn1c(-c2nonc2N)nc2c(C#CCN)ncc(OCCCN)c21` [GSK561866B] were, in that order, 66%, 82% and 52%.
